Like-named read-outs stand apart in the source and are kept apart here.
Legend:
[1] = biological target: dopamine D2LR (Homo sapiens, UniProt P14416); test: Radioligand binding assay, [3H]-raclopride displacement; details: mean ± SD from two independent measurements; read-out: Ki D2
Description: (§1) Cell pellets were thawed and homogenized in 10 vol of assay buffer using an Ultra Turrax tissue homogenizer and centrifuged twice at 35 000 g for 15 min at 4 °C, with incubation for 15 min at 37 °C in between. The composition of the assay buffers was as follows: for 5-HT1AR: 50 mM Tris HCl, 0.1 mM EDTA, 4 mM MgCl2, 10 μM pargyline and 0.1% ascorbate; for 5-HT2AR: 50 mM Tris HCl, 0.1 mM EDTA, 4 mM MgCl2 and 0.1% ascorbate; for 5- HT7bR: 50 mM Tris HCl, 4 mM MgCl2, […] and 0.1% ascorbate; and for dopamine D2LR: 50 mM Tris HCl, 1 mM EDTA, 4 mM MgCl2, 120 mM NaCl, 5 mM KCl, 1.5 mM CaCl2 and 0.1% ascorbate. All assays were incubated in a total volume of […] in 96-well microtiter plates for 1 h at 37 °C, except 5-HT2AR which was incubated at 27 °C. The process of equilibration was terminated by rapid filtration through Unifilter plates with a 96-well cell harvester, and radioactivity retained on the filters was quantified on a Microbeta plate reader (PerkinElmer, USA). For displacement studies, the assay samples contained as radioligands (PerkinElmer, USA): 2.5 nM [^3H]-8-OH-DPAT (135.2 Ci/mmol) for 5-HT1AR; 1 nM [3H]-ketanserin (53.4 Ci/mmol) for 5- HT2AR; 0.8 nM [3H]-5- CT (39.2 Ci/mmol) for 5-HT7R or 2.5 nM [3H]-raclopride (72 Ci/mmol) for D2LR. Nonspecific binding was defined with […] of 5-HT in 5-HT7R binding experiments, whereas […] were used in 5-HT2AR and D2L assays, respectively. Each compound was tested in triplicate at 7 concentrations (10^–10–10^–4 M). The inhibition constants (Ki) were calculated using the Cheng–Prusoff equation.[48] Results were expressed as means of at least two separate experiments.

[2] = test system: locomotor activity; test: Spontaneous locomotor activity in mice; format: in vivo
Description: (§2) The behavioral experiments were performed on male BalbC mice weighing 20–25 g, n = 333. The animals were purchased from the Animal House at the Faculty of Pharmacy, Jagiellonian University Medical College, Krakow, Poland. Mice were kept in groups of ten in Makrolon type 3 cages (dimensions 26.5 × 15 × 42 cm). The animals were kept in an environmentally controlled room (ambient temperature 22 ± 2 °C; relative humidity 50–60%; 12:12 light: dark cycle; and lights on at 8:00). They were allowed to acclimatize with the environment enriched by nesting material, tooth grinding material, houses, and toys for 1 week before commencement of the experiments. During acclimatization, mice were accustomed to the presence of female experimenters and their appropriate manner of animals’ restraint, i.e., cupping each separate mouse in open hands, according to the 3Rs recommendations (handling).[50],[51] Standard laboratory food (Sniff M-Z) and filtered water were freely available. All the experiments were conducted in the light phase between 9 AM and 2 PM. Experimental groups consisted of 6–10 randomly selected animals, depending on the experiment, and each animal was used only once. The experiments were performed by an observer who was unaware of the treatment administered. All the experimental procedures with mice were carried out under EU Directive 2010/63/EU and were approved by the Local Ethics Commission for Animal Experiments of Jagiellonian University in Krakow (Approval nos.:297/2019).
(§3) Compounds were injected once intraperitoneally (i.p.) 60 min before tests, at a volume of 10 mL/kg. Control animals received a vehicle injection according to the same schedule.
Locomotor activity was recorded with an Opto M3 multichannel activity monitor (Columbus Instruments, Columbus, USA). […] According to the 3Rs recommendations,[54] locomotor activity was assessed for the minimal active doses obtained in FST and/or FPT to ensure that detected antidepressant-/anxiolytic-like effects are not the result of increased motility of mice.

[3] = biological target: T1, 5-HT1AR (Homo sapiens, UniProt P08908); test: Radioligand binding assay, [3H]-8-OH-DPAT displacement; details: mean ± SD from two independent measurements; read-out: Ki 5-HT1A
T1 sequence (P08908 1-422): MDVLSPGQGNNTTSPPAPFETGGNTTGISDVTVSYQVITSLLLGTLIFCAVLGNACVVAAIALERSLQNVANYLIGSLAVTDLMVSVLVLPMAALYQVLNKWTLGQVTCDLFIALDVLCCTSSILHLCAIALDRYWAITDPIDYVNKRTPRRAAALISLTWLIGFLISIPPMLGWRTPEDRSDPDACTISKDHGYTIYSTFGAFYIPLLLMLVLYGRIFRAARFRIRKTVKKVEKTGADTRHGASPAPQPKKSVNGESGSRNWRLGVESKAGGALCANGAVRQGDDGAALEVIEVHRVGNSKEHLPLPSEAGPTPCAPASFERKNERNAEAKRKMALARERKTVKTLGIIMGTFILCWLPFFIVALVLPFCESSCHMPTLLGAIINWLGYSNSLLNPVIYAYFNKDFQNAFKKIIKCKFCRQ
Description: as §1

[4] = test system: punished crossings; test: Four-plate test (FPT) in mice; format: in vivo
Description: as §2, §3
The four-plate apparatus (Bioseb, Pinellas Park, USA) was used for tests. Following a 15 s habituation period, the animal’s motivation to explore a novel environment is suppressed by an electric foot shock (0.8 mA, 0.5 s) every time it moves from one plate to another during a 1 min test session. This action is referred to as a “punished crossing” and is followed by a 3 s shock interval, during which the animal can move across plates without receiving a shock.[53]

[5] = biological target: T2, 5-HT7R (Homo sapiens, UniProt P34969); test: Radioligand binding assay, [3H]-5-CT displacement; details: mean ± SD from two independent measurements; read-out: Ki 5-HT7
Description: as §1

[6] = biological target: T2, 5-HT7R; parameters: method as in PMID 29439902, PMID 29425815, PMID 28886235, PMID 26900658; details: earlier results for the racemic hits; read-out: 5-HT7R Ki of reference hit compounds; cited from earlier work
[7] = test system: immobility time; test: Forced swim test (FST, Porsolt's test) in mice; format: in vivo; details: 60 min before test
Description: as §2, §3
The FST experiment was carried out according to the method of Porsolt et al.[52] The total duration of immobility was recorded during the last 4 min of this 6 min period. The reduction of immobility time compared to the control was a measure of antidepressant properties of the tested compound. A mouse was regarded as immobile when it remained floating on water, making only small movements to keep its head above it.

T2 sequence (P34969 1-432): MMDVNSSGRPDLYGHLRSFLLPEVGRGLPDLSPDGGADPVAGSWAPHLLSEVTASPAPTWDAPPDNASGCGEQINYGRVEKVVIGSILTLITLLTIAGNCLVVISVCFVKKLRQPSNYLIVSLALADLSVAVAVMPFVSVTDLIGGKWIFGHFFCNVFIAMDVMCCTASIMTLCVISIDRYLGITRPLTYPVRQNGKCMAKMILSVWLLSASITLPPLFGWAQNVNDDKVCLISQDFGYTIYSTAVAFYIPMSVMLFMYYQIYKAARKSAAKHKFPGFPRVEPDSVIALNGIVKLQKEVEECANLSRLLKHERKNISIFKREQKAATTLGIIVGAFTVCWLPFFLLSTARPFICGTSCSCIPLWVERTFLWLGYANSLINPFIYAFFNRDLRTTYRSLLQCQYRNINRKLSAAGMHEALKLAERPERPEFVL
dopamine D2LR, sequence (P14416 whole entry): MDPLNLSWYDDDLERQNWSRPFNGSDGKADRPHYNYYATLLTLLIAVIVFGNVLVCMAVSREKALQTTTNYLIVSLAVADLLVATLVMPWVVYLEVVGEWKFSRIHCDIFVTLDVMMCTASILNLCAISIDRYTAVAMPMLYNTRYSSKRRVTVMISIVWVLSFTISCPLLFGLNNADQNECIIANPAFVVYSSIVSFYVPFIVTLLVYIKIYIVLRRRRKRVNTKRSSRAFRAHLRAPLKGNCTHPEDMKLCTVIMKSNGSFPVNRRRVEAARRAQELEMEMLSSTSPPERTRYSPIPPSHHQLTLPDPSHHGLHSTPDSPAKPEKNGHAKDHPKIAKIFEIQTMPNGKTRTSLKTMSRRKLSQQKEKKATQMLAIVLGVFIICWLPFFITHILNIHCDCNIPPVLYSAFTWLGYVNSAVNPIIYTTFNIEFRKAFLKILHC

Ki [1]: 261 ± 38 nM
locomotor activity number of crossings ± SEM during 3–6 min ([2]; 0.312 mg/kg i.p.): 108.00 ± 42.04; NS
locomotor activity number of crossings ± SEM during 1 min ([2]; 0.312 mg/kg i.p.): 9.75 ± 5.45; NS
locomotor activity number of crossings ± SEM during 60 min ([2]; 0.312 mg/kg i.p.): 702.75 ± 122.53; NS
locomotor activity number of crossings ± SEM during 3–6 min ([2]; 2.5 mg/kg i.p.): 211.50 ± 29.38; NS
locomotor activity number of crossings ± SEM during 1 min ([2]; 2.5 mg/kg i.p.): 16.50 ± 6.12; NS
locomotor activity number of crossings ± SEM during 60 min ([2]; 2.5 mg/kg i.p.): 2482.75 ± 587.23; NS
Ki [3]: 5570 ± 1410 nM
Ki [5]: 79 ± 6 nM
SMILES: CC1(c2ccc(F)cc2)NC(=O)N(CC(O)CN2CCN(C(c3ccccc3)c3ccccc3)CC2)C1=O (centres unmarked) [Compound 2]
increase of number of punished crossings ([4]; 2.5 mg/kg i.p.): 62%
increase of number of punished crossings vs vehicle ([4]; i.p., active doses): about 60%
Ki [6]: < 100 nM
decrease of immobility time vs vehicle ([7]; 0.312 mg/kg i.p.): 25%
decrease of immobility time vs vehicle ([7]; 0.63 mg/kg i.p.): about 40%
decrease of immobility time vs vehicle ([7]; 1.25 mg/kg i.p.): about 40%
decrease of immobility time vs vehicle ([7]; 2.5 mg/kg i.p.): about 40%
decrease of immobility time vs vehicle ([7]; 5 mg/kg i.p.): 26%
